Holding throughout (format): biochemical
In test [1] the target is T1, rhBACE-1 β-Secretase recombinant human (Homo sapiens, UniProt P56817).
T1 construct: purchased R&D Systems 931-AS
Briefly: BACE assay (FRET, fluorogenic peptide substrate). Particulars: for % BACE Activity: percentage of the enzyme activity (remaining). From the text: The aim of this assay is to determine if a compound, either synthetic or of marine origin, is a BACE-1 inhibitor, to avoid the formation of Aβ. This assay is based on FRET technology (Fluorescence Resonance Energy Transfer). FRET is used to measure cleavage of a peptide substrate, among other uses. […] When a substrate peptide cleavage occurs, the energy balance is broken and all the donor fluorescence can be observed. The increase in fluorescence is linearly related to the rate of proteolysis (Gordon, G W et al., 1998). In this assay the reaction occurs between an enzyme, purified BACE-1, and a fluorogenic peptidic substrate who present the “Swedish mutation”. The peptide cleavage by BACE-1 produces fluorescence energy and enzymatic activity can be quantified.
The reagents which are used in this assay are the following:
rhBACE-1 β-Secretase recombinant human (R&D Systems. Ref. 931-AS).
Fluorogenic Peptide Substrate IV (R&D Systems. Ref. ES004).
Beta-SECRETASE INHIBITOR H-4848. (BACHEM. Ref. H-4848.0001).
The assay is carried out in a 96 wells microplate. The final concentration of substrate is 3.5 μM per well, and the enzyme concentration is 0.5 μg/ml. The final volume of the assay is 100 μl per well and all reagents are diluted in Reaction Buffer.
The compounds are tested at a concentration of 10^−5 and 10^−6 M. The control in the assay is the commercial inhibitor β-Secretase inhibitor H-4848 from BACHEM, which is tested at 300 nM. All the samples and controls are studied by duplicate.
The plate is mixed gently and changes in the fluorescence are measured using a fluorimeter plate reader, with 320 nm excitation filter and 405 nm emission filter. The temperature should be preferably maintained between 25 and 30° C. Measurements are carried out every ten minutes during an hour. The first measure is subtracted from the last to calculate the fluorescence increase, evaluating the enzymatic activity. The 100% activity is calculated as the mean of the results of wells without sample or inhibitor.
In the cases where abnormal effects in fluorescence were detected, BACE inhibition activity was assayed using BACE-1 (beta-Secretase) FRET ASSAY KIT (Invitrogen, Ref. P2985). Fluorescence was measured with a fluorimeter plate reader, with 544 nm excitation filter and 580 nm emission filter.
Further information regarding this assay may be found in the following references, which are incorporated by reference into the present application: • Andrau, D et al; “BACE1- and BACE2-expressing human cells: characterization of beta-Amyloid precursor protein-derived catabolites, design of a novel fluorimetric assay, and identification of new in vitro inhibitors”. J Biol Chem. 2003 Jul. 11; 278(28):25859-66. • Gordon, G W et al; “Quantitative fluorescence resonance energy transfer measurements using fluorescence microscopy.” Biophys J. 1998 May; 74:2702-13.
The compounds of formula (I) of the present invention where submitted to the above indicated assay, in order to determine their BACE activity inhibition. The results are indicated in Table I, in percentage of the enzyme activity.

Test [2] concerns the target T2, Recombinant human glycogen synthase kinase 3 beta (Homo sapiens, UniProt P49841). Briefly: GSK-3 beta inhibition assay (33P-ATP, GS-2 peptide). Conditions: 0.5 h, percentage of the enzyme activity (remaining), read-out: % Act. GSK-3 beta; for remaining activity at 25 µM: compound at 25 μM; for remaining activity at 50 µM: compound at 50 μM. On the procedure: The GSK-3 beta activity of the compounds of formula (I) according to the present invention was determined by incubation of a mixture of recombinant human GSK-3 enzyme, a phosphate source and GSK-3 substrate in the presence and in the absence of the corresponding test compound, and by measuring the GSK-3 activity of this mixture. The compounds where tested at final concentrations of 25 and 50 μM.
Recombinant human glycogen synthase kinase 3 beta was assayed in MOPS 11 mM, pH 7.4, EDTA 0.2 mM, EGTA 1.25 mM, MgCl2 26.25 mM and sodium orthovanadate 0.25 mM in the presence of 62.5 μM of Phospho-Glycogen Synthase Peptide-2 (GS-2), 0.5 μCi gamma-^33P-ATP and unlabelled ATP at a final concentration of 12.5 μM. The final assay volume was 20 μl. After incubation for 30 minutes at 30° C., 15 μl aliquots were spotted onto P81 phosphocellulose papers. Filters were washed four times for at least 10 minutes each and counted with 1.5 ml of scintillation cocktail in a scintillation counter.
The compounds of formula (I) of the present invention where submitted to the above indicated assay, in order to determine their GSK-3 inhibition activity. The results are indicated in Table II, in percentage of the enzyme activity.

The target in test [3] is T2, Recombinant human glycogen synthase kinase 3 beta. The test is described as above.

T1 sequence (P56817 46-457 limits assumed): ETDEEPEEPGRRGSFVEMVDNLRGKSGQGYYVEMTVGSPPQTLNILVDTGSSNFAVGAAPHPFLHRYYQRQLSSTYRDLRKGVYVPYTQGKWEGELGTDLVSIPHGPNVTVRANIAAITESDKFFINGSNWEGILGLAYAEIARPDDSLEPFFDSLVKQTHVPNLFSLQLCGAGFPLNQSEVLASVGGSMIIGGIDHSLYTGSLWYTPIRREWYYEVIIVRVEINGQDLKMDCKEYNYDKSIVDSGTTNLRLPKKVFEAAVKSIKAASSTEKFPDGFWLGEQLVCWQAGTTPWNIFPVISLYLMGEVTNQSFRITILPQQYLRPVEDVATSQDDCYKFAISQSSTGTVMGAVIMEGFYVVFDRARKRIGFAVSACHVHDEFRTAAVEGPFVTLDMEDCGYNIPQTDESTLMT
T2 sequence (P49841 whole entry): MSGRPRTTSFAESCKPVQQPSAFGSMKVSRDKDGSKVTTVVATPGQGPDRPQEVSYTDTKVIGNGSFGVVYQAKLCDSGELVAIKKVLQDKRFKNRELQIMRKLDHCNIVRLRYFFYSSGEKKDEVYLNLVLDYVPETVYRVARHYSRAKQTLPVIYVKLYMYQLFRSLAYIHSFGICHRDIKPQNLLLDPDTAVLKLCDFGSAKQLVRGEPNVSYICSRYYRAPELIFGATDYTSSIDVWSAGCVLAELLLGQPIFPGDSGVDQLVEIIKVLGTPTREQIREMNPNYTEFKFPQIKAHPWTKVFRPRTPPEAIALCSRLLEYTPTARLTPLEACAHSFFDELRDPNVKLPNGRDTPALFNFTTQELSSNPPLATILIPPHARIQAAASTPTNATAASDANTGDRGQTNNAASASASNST

Consider `CC(=O)Oc1ccc(C(=O)O)cc1C/C=C(\C)CC/C=C(\C)CC/C=C(\C)CCC=C(C)C` [Compound 19], for which the IC50 stood at 20.5 ± 2.8 µM in test [1] and 2.77 µM in test [3]. In addition, the “% BACE Activity” value in test [1] (compound at 1 μM) is on record as 87 ± 14.5%; in test [1] (compound at 10 μM), 17.5 ± 0.7%. In test [2], the remaining activity at 25 µM came to 10.7%. The remaining activity at 50 µM in test [2] stood at 4.58%.

In the case of `COCOC(=O)c1ccc(O)c(C/C=C(\C)CC/C=C(\C)CC/C=C(\C)CCC=C(C)C)c1` [Compound 25], the “% BACE Activity” value in test [1] (compound at 1 μM) is recorded as 100%. The “% BACE Activity” value in test [1] (compound at 10 μM) was 100%. For the same molecule, in test [2], the remaining activity at 25 µM worked out at 9.18% and the remaining activity at 50 µM stood at 4.5%. Besides, the IC50 in test [3] turned out to be 22 µM.

Turning to `COCOc1ccc(C(=O)O)cc1C/C=C(\C)CC/C=C(\C)CCC=C(C)C` [Compound 28], the “% BACE Activity” value in test [1] (compound at 1 μM) is 87 ± 10%; in test [1] (compound at 10 μM), 33 ± 7%. Also, the remaining activity at 25 µM in test [2] came to 17.1%. Further, the remaining activity at 50 µM in test [2] turned out to be 2.44%. Also, the IC50 in test [3] was 18 µM.

Source of the values: US20110092591A1, “PHENYL-PRENYL DERIVATIVES, OF MARINE AND SYNTHETIC ORIGIN, FOR THE TREATMENT OF COGNITIVE, NEURODEGENERATIVE OR NEURONAL DISEASES OR DISORDERS” (NOSCIRA S.A., priority 2008, published 2011).
